Source: patent US11363816B2, “4-amino-6-(heterocyclic)picolinates and 6-amino-2-(heterocyclic)pyramidine-4-carboxylates and their use as herbicides” (Dow AgroSciences LLC, priority 2017, dated 2022)

Assays:
Format in all cases: in vivo
[1] = tested on: CENCY=Centaurea cyanus (cornflower); test: Postemergence field trial, Bielefed, Germany
Description: (§1) Field trials were established in Spain (Banares and Granon) and Germany (Bielefeld) to evaluate the efficacy of Compound 5, Compound 6, and Compound 7. Trials were designed as randomized complete blocks with three to four replicates. Trials were established in winter wheat with natural weed population with plot sizes of 2-2.5 meters (m) by 6-8 m (width×length). The crops were grown using normal cultural practices for fertilization, seeding, and maintenance to ensure good growth of the crop. All herbicide treatments were applied post-emergence with applications made to the crops at the BBCH 21 to 23 growth stage. Herbicides were applied with backpack or bicycle sprayers using air as a propellant. The sprayers utilized flat fan air-induction spray nozzles calibrated to deliver a uniform spray pattern that provided thorough coverage of the foliage using a 200 L/ha spray volume. All treatments were applied with methylated seed oil (MSO) at 1.25% v/v. Phytotoxicity to the weeds was assessed visually at several intervals after application as percent overall control, compared to an untreated control plot. In general, three to four replicates were assessed for each treatment. All treatment results are an average of three or four replicates. Compound 5, Compound 6, and Compound 7 were applied as emulsifiable concentrate (EC) formulations at 100 g ae/L EC, respectively.

[2] = tested on: PAPRH=Papaver rhoeas L. (common poppy); test: Postemergence field trial, Bielefed, Germany
Description: as §1

[3] = tested on: STEME=Stellaria media (L.) Vill. (common chickweed); test: Postemergence field trial, Ellerslie, Alberta, Canada
Description: (§2) Field trials were established in Canada (in Ellerslie, Alberta; Nisku, Alberta and Hanley, Saskatchewan) to evaluate the efficacy of Compound 5, Compound 6, and Compound 7. Trials were designed as randomized complete blocks with four replicates. Trials were established in spring wheat with natural weed population with plot sizes of 2-3 meters (m) by 8-10 m (width×length). The crops were grown using normal cultural practices for fertilization, seeding, and maintenance to ensure good growth of the crop.
(§3) All herbicide treatments were applied post-emergence with applications made to the crops at BBCH (Phenological development stages of a plant) 14 to 22 growth stage. Herbicides were applied with backpack or bicycle sprayers using carbon dioxide (CO2) as a propellant. The sprayers utilized flat fan air-induction spray nozzles calibrated to deliver a uniform spray pattern that provided thorough coverage of the foliage using a 100 L/ha spray volume. All treatments were applied with methylated seed oil (MSO) at 1.25% v/v. Phytotoxicity to the weeds was assessed visually at several intervals after application as percent overall control, compared to an untreated control plot. In general, four replicates were assessed for each treatment. All treatment results are an average of four replicates.
(§4) Compound 5, Compound 6 and Compound 7 were applied as emulsifiable concentrate (EC) formulations at 100 g ae/L EC, respectively.

[4] = tested on: POLCO=Polygonum convolvulus L. (wild buckwheat); test: as above
Description: as §2, §3, §4

[5] = tested on: CHEAL=Chenopodium album L. (common lambsquarters); test: as above
Description: as §2, §3, §4

[6] = tested on: STEME=Stellaria media (L.) Vill. (common chickweed); test: Postemergence field trial, Nisku, Alberta, Canada
Description: as §2, §3, §4

[7] = tested on: CHEAL=Chenopodium album L. (common lambsquarters); test: Postemergence field trial, Nisku, Alberta, Canada
Description: as §2, §3, §4

[8] = tested on: FUMOF=Fumaria officinalis (common fumitory); test: Postemergence field trial, Banares, Spain
Description: as §1

[9] = tested on: VERHE=Veronica hederifolia (ivyleaved speedwell); test: Postemergence field trial, Banares, Spain
Description: as §1

[10] = tested on: PAPRH=Papaver rhoeas L. (common poppy); test: Postemergence field trial, Banares, Spain
Description: as §1

[11] = tested on: POLCO=Polygonum convolvulus L. (wild buckwheat); test: Postemergence field trial, Hanley, Saskatchewan, Canada; details: 66DAAA
Description: as §2, §3, §4

[12] = tested on: KCHSC=Kochia scoparia (L.) Schrad. (Kochia); test: as above; details: 66DAAA
Description: as §2, §3, §4

[13] = tested on: CHEAL=Chenopodium album L. (common lambsquarters); test: as above; details: 66DAAA
Description: as §2, §3, §4

[14] = tested on: weeds; test: Herbicidal activity, overall conclusion from greenhouse and field results; details: summary of Tables 1 to 8
Source text: These new chemical herbicides offer a broader spectrum of weed control, higher activity against weeds, and provide a way to address the management of weeds that developed resistance with respect to herbicides traditionally used to control them.

[15] = tested on: VERHE=Veronica hederifolia (ivyleaved speedwell); test: Postemergence field trial, Granon, Spain (Table 5)
Description: as §1

[16] = tested on: PAPRH=Papaver rhoeas L. (common poppy); test: Postemergence field trial, Granon, Spain (Table 5)
Description: as §1

N#CCOC(=O)c1nc(-c2ccc3cc[nH]c3c2F)c(F)c(N)c1Cl [Compound 6, cyanomethyl 4-amino-3-chloro-5-fluoro-6-(7-fluoro-1H-indol-6-yl)picolinate]
Percent (%) Visual Control CENCY 85DAAA ([1]; 5 g ae/ha): 60% | Percent (%) Visual Control CENCY 85DAAA ([1]; 10 g ae/ha): 92.5% | Percent (%) Visual Control CENCY 85DAAA ([1]; 20 g ae/ha): 97% | Percent (%) Visual Control PAPRH 85DAAA ([2]; 5 g ae/ha): 94.5% | Percent (%) Visual Control PAPRH 85DAAA ([2]; 10 g ae/ha): 97.3% | Percent (%) Visual Control PAPRH 85DAAA ([2]; 20 g ae/ha): 99.8% | Percent (%) Visual Control STEME 51DAAA ([3]; 10 g ae/ha): 83.8% | Percent (%) Visual Control STEME 51DAAA ([3]; 20 g ae/ha): 75.8% | Percent (%) Visual Control STEME 51DAAA ([3]; 40 g ae/ha): 90% | Percent (%) Visual Control POLCO 51DAAA ([4]; 10 g ae/ha): 90.3% | Percent (%) Visual Control POLCO 51DAAA ([4]; 20 g ae/ha): 84.5% | Percent (%) Visual Control POLCO 51DAAA ([4]; 40 g ae/ha): 87% | Percent (%) Visual Control CHEAL 51DAAA ([5]; 10 g ae/ha): 96.8% | Percent (%) Visual Control CHEAL 51DAAA ([5]; 20 g ae/ha): 98% | Percent (%) Visual Control CHEAL 51DAAA ([5]; 40 g ae/ha): 98% | Percent (%) Visual Control STEME 28DAAA ([6]; 10 g ae/ha): 99% | Percent (%) Visual Control STEME 51DAAA ([6]; 10 g ae/ha): 87.5% | Percent (%) Visual Control STEME 28DAAA ([6]; 20 g ae/ha): 96% | Percent (%) Visual Control STEME 51DAAA ([6]; 20 g ae/ha): 87.8% | Percent (%) Visual Control STEME 28DAAA ([6]; 40 g ae/ha): 99% | Percent (%) Visual Control STEME 51DAAA ([6]; 40 g ae/ha): 94.5% | Percent (%) Visual Control CHEAL 51DAAA ([7]; 10 g ae/ha): 98% | Percent (%) Visual Control CHEAL 51DAAA ([7]; 20 g ae/ha): 98% | Percent (%) Visual Control CHEAL 51DAAA ([7]; 40 g ae/ha): 98% | Percent (%) Visual Control FUMOF 83DAAA ([8]; 5 g ae/ha): 41.7% | Percent (%) Visual Control FUMOF 83DAAA ([8]; 10 g ae/ha): 69.3% | Percent (%) Visual Control FUMOF 83DAAA ([8]; 20 g ae/ha): 96% | Percent (%) Visual Control VERHE 66DAAA ([9]; 5 g ae/ha): 60% | Percent (%) Visual Control VERHE 66DAAA ([9]; 10 g ae/ha): 81.7% | Percent (%) Visual Control VERHE 66DAAA ([9]; 20 g ae/ha): 91% | Percent (%) Visual Control PAPRH 66DAAA ([10]; 5 g ae/ha): 60% | Percent (%) Visual Control PAPRH 66DAAA ([10]; 10 g ae/ha): 75% | Percent (%) Visual Control PAPRH 66DAAA ([10]; 20 g ae/ha): 91% | Percent (%) Visual Control POLCO ([11]; 10 g ae/ha): 47.5% | Percent (%) Visual Control POLCO ([11]; 20 g ae/ha): 68.8% | Percent (%) Visual Control POLCO ([11]; 40 g ae/ha): 85.8% | Percent (%) Visual Control KCHSC ([12]; 10 g ae/ha): 62% | Percent (%) Visual Control KCHSC ([12]; 20 g ae/ha): 81.5% | Percent (%) Visual Control KCHSC ([12]; 40 g ae/ha): 92.5% | Percent (%) Visual Control CHEAL ([13]; 10 g ae/ha): 95% | Percent (%) Visual Control CHEAL ([13]; 20 g ae/ha): 98.3% | Percent (%) Visual Control CHEAL ([13]; 40 g ae/ha): 99% | herbicidal activity (overall conclusion) [14]: superior herbicidal activity over Compound 7 | Percent (%) Visual Control VERHE 34DAAA ([15]; 5 g ae/ha): 55% | Percent (%) Visual Control VERHE 34DAAA ([15]; 10 g ae/ha): 77.7% | Percent (%) Visual Control VERHE 34DAAA ([15]; 20 g ae/ha): 86% | Percent (%) Visual Control PAPRH 84DAAA ([16]; 5 g ae/ha): 68.7% | Percent (%) Visual Control PAPRH 84DAAA ([16]; 10 g ae/ha): 81% | Percent (%) Visual Control PAPRH 84DAAA ([16]; 20 g ae/ha): 90%

Nc1c(F)c(-c2ccc3cc[nH]c3c2F)nc(C(=O)OCc2ccccc2)c1Cl [Compound 7, benzyl 4-amino-3-chloro-5-fluoro-6-(7-fluoro-1H-indol-6-yl)picolinate, reference compound]
Percent (%) Visual Control CENCY 85DAAA ([1]; 5 g ae/ha): 32.5% | Percent (%) Visual Control CENCY 85DAAA ([1]; 10 g ae/ha): 53.8% | Percent (%) Visual Control CENCY 85DAAA ([1]; 20 g ae/ha): 62.5% | Percent (%) Visual Control PAPRH 85DAAA ([2]; 5 g ae/ha): 66.3% | Percent (%) Visual Control PAPRH 85DAAA ([2]; 10 g ae/ha): 78.8% | Percent (%) Visual Control PAPRH 85DAAA ([2]; 20 g ae/ha): 80% | Percent (%) Visual Control STEME 51DAAA ([3]; 10 g ae/ha): 73.3% | Percent (%) Visual Control STEME 51DAAA ([3]; 20 g ae/ha): 80.8% | Percent (%) Visual Control STEME 51DAAA ([3]; 40 g ae/ha): 83.3% | Percent (%) Visual Control POLCO 51DAAA ([4]; 10 g ae/ha): 79% | Percent (%) Visual Control POLCO 51DAAA ([4]; 20 g ae/ha): 92.8% | Percent (%) Visual Control POLCO 51DAAA ([4]; 40 g ae/ha): 96.8% | Percent (%) Visual Control CHEAL 51DAAA ([5]; 10 g ae/ha): 94.8% | Percent (%) Visual Control CHEAL 51DAAA ([5]; 20 g ae/ha): 98% | Percent (%) Visual Control CHEAL 51DAAA ([5]; 40 g ae/ha): 98% | Percent (%) Visual Control STEME 28DAAA ([6]; 10 g ae/ha): 76.7% | Percent (%) Visual Control STEME 51DAAA ([6]; 10 g ae/ha): 76.3% | Percent (%) Visual Control STEME 28DAAA ([6]; 20 g ae/ha): 76.7% | Percent (%) Visual Control STEME 51DAAA ([6]; 20 g ae/ha): 80% | Percent (%) Visual Control STEME 28DAAA ([6]; 40 g ae/ha): 99% | Percent (%) Visual Control STEME 51DAAA ([6]; 40 g ae/ha): 85.8% | Percent (%) Visual Control CHEAL 51DAAA ([7]; 10 g ae/ha): 98% | Percent (%) Visual Control CHEAL 51DAAA ([7]; 20 g ae/ha): 98% | Percent (%) Visual Control CHEAL 51DAAA ([7]; 40 g ae/ha): 98% | Percent (%) Visual Control FUMOF 83DAAA ([8]; 5 g ae/ha): 26.7% | Percent (%) Visual Control FUMOF 83DAAA ([8]; 10 g ae/ha): 45% | Percent (%) Visual Control FUMOF 83DAAA ([8]; 20 g ae/ha): 58.3% | Percent (%) Visual Control VERHE 66DAAA ([9]; 5 g ae/ha): 50% | Percent (%) Visual Control VERHE 66DAAA ([9]; 10 g ae/ha): 56% | Percent (%) Visual Control VERHE 66DAAA ([9]; 20 g ae/ha): 70% | Percent (%) Visual Control PAPRH 66DAAA ([10]; 5 g ae/ha): 53.3% | Percent (%) Visual Control PAPRH 66DAAA ([10]; 10 g ae/ha): 62.7% | Percent (%) Visual Control PAPRH 66DAAA ([10]; 20 g ae/ha): 75% | Percent (%) Visual Control POLCO ([11]; 10 g ae/ha): 46.3% | Percent (%) Visual Control POLCO ([11]; 20 g ae/ha): 63.3% | Percent (%) Visual Control POLCO ([11]; 40 g ae/ha): 70% | Percent (%) Visual Control KCHSC ([12]; 10 g ae/ha): 45% | Percent (%) Visual Control KCHSC ([12]; 20 g ae/ha): 72% | Percent (%) Visual Control KCHSC ([12]; 40 g ae/ha): 78.8% | Percent (%) Visual Control CHEAL ([13]; 10 g ae/ha): 95.5% | Percent (%) Visual Control CHEAL ([13]; 20 g ae/ha): 98.5% | Percent (%) Visual Control CHEAL ([13]; 40 g ae/ha): 98.8% | Percent (%) Visual Control VERHE 34DAAA ([15]; 5 g ae/ha): 51.7% | Percent (%) Visual Control VERHE 34DAAA ([15]; 10 g ae/ha): 58.3% | Percent (%) Visual Control VERHE 34DAAA ([15]; 20 g ae/ha): 79.3% | Percent (%) Visual Control PAPRH 84DAAA ([16]; 5 g ae/ha): 59.3% | Percent (%) Visual Control PAPRH 84DAAA ([16]; 10 g ae/ha): 68.3% | Percent (%) Visual Control PAPRH 84DAAA ([16]; 20 g ae/ha): 80.3%
